{"source": "patent US9227923B2", "about": "“Pesticidal carboxamides” (Bayer Intellectual Property GmbH, priority 2009, dated 2016)", "data": [{"tested_on": "Tobacco Cutworm (Spodoptera litura) Larvae", "assay": "Test against tobacco cutworm (Spodoptera litura) larvae, leaf dip", "assay_type": "in vivo", "settings": "Spodoptera litura, foliar, 168 h; active compound concentration of 100 ppm; third instar larvae; after 7 days; read-out: insecticidal activity", "protocol": "(§1) Solvent: 3 parts by weight of dimethylformamide\n(§2) Emulsifier: 1 part by weight of polyoxyethylene alkyl phenyl ether\n(§3) Leaves of sweet potato were immersed in the test solution at the appropriate concentration, and the leaves were dried in air. The leaves were then placed in a petri dish having a diameter of 9 cm, and ten Spodoptera litura at third instar larvae were released therein. The petri dishes were placed in a temperature-controlled chamber at 25° C. After 2 days and 4 days more sweet potato leaves were added. After 7 days, the number of dead larvae was counted to calculate the insecticidal activity. An insecticidal activity of 100% means that all larvae were killed, whereas an insecticidal activity of 0% means that no larva was killed.", "units": {"pest or weed control at 100 ppm": "%"}, "values": [{"compound": "O=C(Nc1c(Cl)cc(C(F)(C(F)(F)F)C(F)(F)F)cc1Cl)c1ccc(I)c(Cl)c1", "note": "[Compound A-7, 3-chloro-N-[2,6-dichloro-4-(1,1,1,2,3,3,3-heptafluoropropan-2-yl)phenyl]-4-iodobenzamide]", "pest or weed control at 100 ppm": 100}, {"compound": "CCC(=O)NCc1ccc(C(=O)Nc2c(Cl)cc(C(F)(C(F)(F)F)C(F)(F)F)cc2Cl)cc1Cl", "note": "[Compound 5-230, 3-chloro-N-[2,6-dichloro-4-(1,1,1,2,3,3,3-heptafluoropropan-2-yl)phenyl]-4-[(propionylamino)methyl]benzamide]", "pest or weed control at 100 ppm": 100}, {"compound": "CCc1cc(C(F)(C(F)(F)F)C(F)(F)F)cc(C)c1NC(=O)c1ccc(-n2cncn2)c(CNC(C)=O)c1", "note": "[Compound 12-3, 3-(acetamidemethyl)-N-[2-ethyl-4-(1,1,1,2,3,3,3-heptafluoropropan-2-yl)-6-methylphenyl]-4-(1H-1,2,4-triazol-1-yl)benzamide]", "pest or weed control at 100 ppm": 100}]}, {"tested_on": "Tobacco Cutworm (Spodoptera litura) Larvae", "assay": "Test against tobacco cutworm (Spodoptera litura) larvae, leaf dip", "assay_type": "in vivo", "settings": "active compound concentration of 100 ppm; third instar larvae; after 7 days", "protocol": "as §1, §2, §3", "units": {"insecticidal activity": "%"}, "values": [{"compound": "Cc1cc(C(F)(C(F)(F)F)C(F)(F)F)cc(C)c1NC(=O)c1ccc(CNC(=O)CC2CC2)cc1F", "note": "[Compound 5-24]", "insecticidal activity": 100}, {"compound": "Cc1cc(C(F)(C(F)(F)F)C(F)(F)F)cc(C)c1NC(=O)c1ccc(CNC(=O)c2cccnc2Cl)cc1F", "note": "[Compound 5-182]", "insecticidal activity": 100}, {"compound": "Cc1cc(C(F)(C(F)(F)F)C(F)(F)F)cc(C)c1NC(=O)c1ccc(CNC(=O)CC(F)(F)F)cc1", "note": "[Compound 5-7]", "insecticidal activity": 100}, {"compound": "CCC(=O)NCc1ccc(C(=O)Nc2c(C)cc(C(F)(C(F)(F)F)C(F)(F)F)cc2CC)c(Cl)c1", "note": "[Compound 5-66]", "insecticidal activity": 100}, {"compound": "CCC(=O)NCc1ccc(C(=O)Nc2c(C)cc(C(F)(C(F)(F)F)C(F)(F)F)cc2CC)cc1I", "note": "[Compound 5-191]", "insecticidal activity": 100}, {"compound": "Cc1cc(C(F)(C(F)(F)F)C(F)(F)F)cc(OC(F)F)c1NC(=O)c1ccc(CN)c(Cl)c1", "note": "[Compound 5-293]", "insecticidal activity": 100}, {"compound": "CCc1cc(C(F)(C(F)(F)F)C(F)(F)F)cc(C)c1NC(=O)c1ccc(CNC(=O)C2CC2)c([N+](=O)[O-])c1", "note": "[Compound 5-116]", "insecticidal activity": 100}, {"compound": "CCc1cc(C(F)(C(F)(F)F)C(F)(F)F)cc(C)c1NC(=O)c1ccc(CNC(=O)c2ccc(Cl)cc2)cc1", "note": "[Compound 5-39]", "insecticidal activity": 100}, {"compound": "CCc1cc(C(F)(C(F)(F)F)C(F)(F)F)cc(C)c1NC(=O)c1ccc(CN)c(Cl)c1", "note": "[Compound 5-76]", "insecticidal activity": 100}, {"compound": "O=C(CC1CC1)NCc1ccc(C(=O)Nc2c(Cl)cc(C(F)(C(F)(F)F)C(F)(F)C(F)(F)F)cc2Cl)cc1Cl", "note": "(stereo not drawn) [Compound 5-330]", "insecticidal activity": 100}, {"compound": "CCC(=O)NCc1ccc(C(=O)Nc2c(C)cc(C(F)(C(F)(F)F)C(F)(F)F)cc2CC)cc1C(F)(F)F", "note": "[Compound 5-107]", "insecticidal activity": 100}, {"compound": "O=C(CC(F)(F)F)NCc1ccc(C(=O)Nc2c(Cl)cc(C(F)(C(F)(F)F)C(F)(F)F)cc2Cl)cc1Cl", "note": "[Compound 5-232]", "insecticidal activity": 100}, {"compound": "CCc1cc(C(F)(C(F)(F)F)C(F)(F)F)cc(C)c1NC(=O)c1ccc(CNC(=O)CC2CC2)cc1", "note": "[Compound 5-31]", "insecticidal activity": 100}, {"compound": "Cc1cc(C#N)ccc1C(=O)Nc1c(Cl)cc(C(F)(C(F)(F)F)C(F)(F)F)cc1Cl", "note": "[Compound I-25]", "insecticidal activity": 100}, {"compound": "Cc1cc(C(F)(C(F)(F)F)C(F)(F)F)cc(Cl)c1NC(=O)c1ccc(CNC(=O)CC(F)(F)F)cc1", "note": "[Compound 5-335]", "insecticidal activity": 100}, {"compound": "O=C(CC1CC1)NCc1ccc(C(=O)Nc2c(Cl)cc(C(F)(C(F)(F)F)C(F)(F)C(F)(F)F)cc2Cl)cc1", "note": "(stereo not drawn) [Compound 5-325]", "insecticidal activity": 100}, {"compound": "CCc1cc(C(F)(C(F)(F)F)C(F)(F)F)cc(C)c1NC(=O)c1ccc(CNC(=O)c2ccccc2Cl)cc1", "note": "[Compound 5-37]", "insecticidal activity": 100}, {"compound": "CCc1cc(C(F)(C(F)(F)F)C(F)(F)F)cc(C)c1NC(=O)c1ccc(CNC(=O)CC2CC2)cc1Cl", "note": "[Compound 5-67]", "insecticidal activity": 100}, {"compound": "CCc1cc(C(F)(C(F)(F)F)C(F)(F)F)cc(C)c1NC(=O)c1ccc(CNC(=O)CC2CC2)c2ccccc12", "note": "[Compound 6-5]", "insecticidal activity": 100}, {"compound": "CCC(=O)NCc1ccc(C(=O)Nc2c(C)cc(C(F)(C(F)(F)F)C(F)(F)F)cc2CC)c2ccccc12", "note": "[Compound 6-3]", "insecticidal activity": 100}, {"compound": "CCc1cc(C(F)(C(F)(F)F)C(F)(F)F)cc(C)c1NC(=O)c1ccc(CNC(=O)CC2CC2)c([N+](=O)[O-])c1", "note": "[Compound 5-117]", "insecticidal activity": 100}, {"compound": "CCC(=O)NCc1ccc(C(=O)Nc2c(C)cc(C(F)(C(F)(F)F)C(F)(F)C(F)(F)F)cc2CC)cc1I", "note": "(stereo not drawn) [Compound 5-195]", "insecticidal activity": 100}, {"compound": "CCc1cc(C(F)(C(F)(F)F)C(F)(F)F)cc(C)c1NC(=O)c1ccc(CNC(=O)C2CC2)c(C(F)(F)F)c1", "note": "[Compound 5-108]", "insecticidal activity": 100}, {"compound": "CCc1cc(C(F)(C(F)(F)F)C(F)(F)F)cc(C)c1NC(=O)c1ccc(CNC(=O)C2CC2)c(F)c1F", "note": "[Compound 5-53]", "insecticidal activity": 100}, {"compound": "CCc1cc(C(F)(C(F)(F)F)C(F)(F)F)cc(C)c1NC(=O)c1ccc(C#N)cc1", "note": "[Compound I-2]", "insecticidal activity": 100}, {"compound": "CCc1cc(C(F)(C(F)(F)F)C(F)(F)Br)cc(C)c1NC(=O)c1ccc(CNC(=O)C2CC2)c(Cl)c1", "note": "(racemic) [Compound 5-318]", "insecticidal activity": 100}, {"compound": "CC(=O)NCc1ccc(C(=O)Nc2c(Cl)cc(C(F)(C(F)(F)F)C(F)(F)C(F)(F)F)cc2Cl)cc1", "note": "(stereo not drawn) [Compound 5-322]", "insecticidal activity": 100}, {"compound": "CCc1cc(C(F)(C(F)(F)F)C(F)(F)F)cc(C)c1NC(=O)c1ccc(CN)c(Br)c1", "note": "[Compound 5-83]", "insecticidal activity": 100}, {"compound": "CCc1cc(C(F)(C(F)(F)F)C(F)(F)F)cc(C)c1NC(=O)c1ccc(CNC(=O)CC2CC2)c(C)c1", "note": "[Compound 5-101]", "insecticidal activity": 100}, {"compound": "CCc1cc(C(F)(C(F)(F)F)C(F)(F)C(F)(F)F)cc(C)c1NC(=O)c1ccc(CNC(=O)CC2CC2)c(Br)c1", "note": "(stereo not drawn) [Compound 5-160]", "insecticidal activity": 100}, {"compound": "CCC(=O)NCc1ccc(C(=O)Nc2c(C)cc(C(F)(C(F)(F)F)C(F)(F)C(F)(F)F)cc2CC)cc1Br", "note": "(stereo not drawn) [Compound 5-158]", "insecticidal activity": 100}, {"compound": "CCc1cc(C(F)(C(F)(F)F)C(F)(F)F)cc(C)c1NC(=O)c1ccc(CNC(=O)c2cccc(Cl)c2)cc1", "note": "[Compound 5-38]", "insecticidal activity": 100}, {"compound": "CCc1cc(C(F)(C(F)(F)F)C(F)(F)F)cc(C)c1NC(=O)c1ccc(CN(C)C(=O)c2cccnc2Cl)cc1", "note": "[Compound 5-189]", "insecticidal activity": 100}, {"compound": "Cc1cc(C(F)(C(F)(F)F)C(F)(F)F)cc(C)c1NC(=O)c1ccc(CNC(=O)c2cccnc2F)cc1", "note": "[Compound 5-19]", "insecticidal activity": 100}, {"compound": "CCC(=O)NCc1cc(C(=O)Nc2c(C)cc(C(F)(C(F)(F)F)C(F)(F)F)cc2CC)ccc1-n1cncn1", "note": "[Compound 12-4]", "insecticidal activity": 100}, {"compound": "CCc1cc(C(F)(C(F)(F)F)C(F)(F)C(F)(F)F)cc(C)c1NC(=O)c1ccc(CNC(=O)CC2CC2)c(I)c1", "note": "(stereo not drawn) [Compound 5-197]", "insecticidal activity": 100}, {"compound": "CCc1cc(C(F)(C(F)(F)F)C(F)(F)F)cc(C)c1NC(=O)c1ccc(CNC(=O)C2CC2)c2ccccc12", "note": "[Compound 6-4]", "insecticidal activity": 100}, {"compound": "CC(C)(C)OC(=O)NCc1ccc(C(=O)Nc2c(Cl)cc(C(F)(C(F)(F)F)C(F)(F)C(F)(F)F)cc2Cl)cc1Cl", "note": "(stereo not drawn) [Compound 5-329]", "insecticidal activity": 100}, {"compound": "CCc1cc(C(F)(C(F)(F)F)C(F)(F)F)cc(C)c1NC(=O)c1ccc2c(c1)CCCC2NC(=O)CC(F)(F)F", "note": "(stereo not drawn) [Compound 11-6]", "insecticidal activity": 100}, {"compound": "CCc1cc(C(F)(C(F)(F)F)C(F)(F)F)cc(C)c1NC(=O)c1ccc(CNC(=O)CC(F)(F)F)cn1", "note": "[Compound 7-6]", "insecticidal activity": 100}, {"compound": "CCc1cc(C(F)(C(F)(F)F)C(F)(F)F)cc(C)c1NC(=O)c1ccc(CNC(C)=O)c(I)c1", "note": "[Compound 5-190]", "insecticidal activity": 100}, {"compound": "CCc1cc(C(F)(C(F)(F)F)C(F)(F)F)cc(C)c1NC(=O)c1ccc(C(C)NC(=O)CC2CC2)cc1", "note": "(stereo not drawn) [Compound 9-5]", "insecticidal activity": 100}, {"compound": "CCc1cc(C(F)(C(F)(F)F)C(F)(F)C(F)(F)F)cc(C)c1NC(=O)c1ccc(CNC(=O)C2CC2)c(I)c1", "note": "(stereo not drawn) [Compound 5-196]", "insecticidal activity": 100}, {"compound": "CCc1cc(C(F)(C(F)(F)F)C(F)(F)F)cc(C)c1NC(=O)c1ccc(CNC(=O)CC2CC2)c(F)c1F", "note": "[Compound 5-54]", "insecticidal activity": 100}, {"compound": "CCc1cc(C(F)(C(F)(F)F)C(F)(F)C(F)(F)F)cc(C)c1NC(=O)c1ccc(CN)c(Cl)c1", "note": "(stereo not drawn) [Compound 5-149]", "insecticidal activity": 100}, {"compound": "CCC(=O)NCc1ccc(C(=O)Nc2c(C)cc(C(F)(C(F)(F)F)C(F)(F)F)cc2CC)c(F)c1F", "note": "[Compound 5-52]", "insecticidal activity": 100}, {"compound": "CCc1cc(C(F)(C(F)(F)F)C(F)(F)F)cc(C)c1NC(=O)c1ccc(CNC(=O)CC(F)(F)F)cc1Cl", "note": "[Compound 5-68]", "insecticidal activity": 100}, {"compound": "CCc1cc(C(F)(C(F)(F)F)C(F)(F)F)cc(C)c1NC(=O)c1ccc(CNC(C)=O)c2ccccc12", "note": "[Compound 6-2]", "insecticidal activity": 100}, {"compound": "CCC(=O)NCc1ccc(C(=O)Nc2c(C)cc(C(F)(C(F)(F)F)C(F)(F)F)cc2C)cc1", "note": "[Compound 5-3]", "insecticidal activity": 100}, {"compound": "CCc1cc(C(F)(C(F)(F)F)C(F)(F)F)cc(C)c1NC(=O)c1ccc(C#N)cc1F", "note": "[Compound I-3]", "insecticidal activity": 100}, {"compound": "Cc1cc(C(F)(C(F)(F)F)C(F)(F)F)cc(Cl)c1NC(=O)c1ccc(C#N)cc1", "note": "[Compound I-28]", "insecticidal activity": 100}, {"compound": "Cc1cc(C(F)(C(F)(F)F)C(F)(F)F)cc(Cl)c1NC(=O)c1ccc(CNC(=O)CC2CC2)cc1", "note": "[Compound 5-336]", "insecticidal activity": 100}, {"compound": "CCC(=O)NCc1ccc(C(=O)Nc2c(C)cc(C(F)(C(F)(F)F)C(F)(F)F)cc2CC)cc1[N+](=O)[O-]", "note": "[Compound 5-115]", "insecticidal activity": 100}, {"compound": "CCc1cc(C(F)(C(F)(F)F)C(F)(F)F)cc(C)c1NC(=O)c1ccc(CNC(=O)CC(F)(F)F)nc1", "note": "[Compound 8-6]", "insecticidal activity": 100}]}]}
